The results in this text go back to patent publication US10410851B2, “Matrix-assisted laser desorption mass spectrometry of high molecular weight polyoxyethylene derivative” (NOF CORPORATION, priority 2015, dated 2019).

The data set in a line: 1-octanol/water partition coefficient (logPow) of the matrix by the high-performance liquid chromatography method, OECD Test Guideline 117. The format is physicochemical. As to conditions: HPLC method of OECD Test Guideline 117, matrix for MALDI mass spectrometry. The source says:
The low polar matrix for MALDI mass spectrometry which can be used in the invention is a low polar matrix having a 1-octanol/water partition coefficient from 4.1 to 4.8 (more preferably from 4.3 to 4.8). The 1-octanol/water partition coefficient of the matrix is a numerical value measured by the high-performance liquid chromatography method described in OECD Test Guideline 117.

Structures are written as SMILES.

`O=C(O)c1cc(O)ccc1O` [2,5-dihydroxybenzoic acid]: the chromatographic logP (1-octanol/water) worked out at 0.6. For the molecule `C/C(C=C(C#N)C#N)=C\c1ccc(C(C)(C)C)cc1` [Trans-2-[3-(4-tert-butylphenyl)-2-methyl-2-propenylidene]malononitrile], the “1-octanol/water partition coefficient (logPow)” value is on record as 4.6. Molecule `N#CC(=Cc1ccc(O)cc1)C(=O)O` [α-cyano-4-hydroxycinnamic acid] yielded a chromatographic logP of 0.9.
